This note sets out measurements from ChEMBL document CHEMBL3046945, “Enantioselective Antifungal Activity of Pefurazoate against Pathogens of Rice Seed Diseases” (J Pestic Sci, 2001).

Test [1] deals with Fusarium fujikuroi. Kind of test: Antifungal activity against benzimidazole-sensitive Fusarium fujikuroi assessed as diameter of mycelial colony after 3 to 4 days by agar dilution method. It counts as functional, organism-based. (In general: In agar dilution the substance is mixed into plates at graded concentrations.)
In another test the test system is Pyricularia oryzae. Kind of test: Antifungal activity against Magnaporthe oryzae assessed as diameter of mycelial colony after 3 to 4 days by agar dilution method. It counts as functional, organism-based.
A further test has as its system Bipolaris oryzae. Kind of test: Antifungal activity against Bipolaris oryzae assessed as diameter of mycelial colony after 3 to 4 days by agar dilution method. It counts as functional, organism-based.
The test system of test [2] is Fusarium fujikuroi. Kind of test: Inhibition of ergosterol biosynthesis in benzimidazole-sensitive Fusarium fujikuroi assessed as incorporation of [2-14C] acetate into 24-methylenedihydrolanosterol at 7.35 ppm by autoradiography. It is filed as functional.
Test [3] has as its system Fusarium fujikuroi. The test can be described thus: Inhibition of ergosterol biosynthesis in benzimidazole-sensitive Fusarium fujikuroi assessed as incorporation of [2-14C] acetate into total lipids at 7.35 ppm by autoradiography. It is filed as functional.
The test system of test [4] is Fusarium fujikuroi. The test can be described thus: Inhibition of ergosterol biosynthesis in benzimidazole-sensitive Fusarium fujikuroi assessed as incorporation of [2-14C] acetate into lipid fraction at 7.35 ppm by autoradiography. It is filed as functional.
The subject of test [5] is Fusarium fujikuroi. Kind of test: Inhibition of ergosterol biosynthesis in benzimidazole-sensitive Fusarium fujikuroi assessed as incorporation of [2-14C] acetate into ergosterol at 7.35 ppm by autoradiography. It counts as functional.
The test system of test [6] is Fusarium fujikuroi. Kind of test: Inhibition of ergosterol biosynthesis in benzimidazole-sensitive Fusarium fujikuroi assessed as incorporation of [2-14C] acetate into 24-methylenedihydrolanosterol at 0.24 ppm by autoradiography. It counts as functional.
For test [7], the system named is Fusarium fujikuroi. Kind of test: Inhibition of ergosterol biosynthesis in benzimidazole-sensitive Fusarium fujikuroi assessed as incorporation of [2-14C] acetate into ergosterol at 0.24 ppm by autoradiography. It is filed as functional.
In test [8] the test system is Fusarium fujikuroi. Kind of test: Inhibition of ergosterol biosynthesis in benzimidazole-sensitive Fusarium fujikuroi assessed as incorporation of [2-14C] acetate into total lipids at 0.24 ppm by autoradiography. It is filed as functional.
Test [9] relates to Fusarium fujikuroi. Kind of test: Inhibition of ergosterol biosynthesis in benzimidazole-sensitive Fusarium fujikuroi assessed as incorporation of [2-14C] acetate into lipid fraction at 0.24 ppm by autoradiography. It counts as functional.

The inhibition is how much of the control response was suppressed.

The structures appear in SMILES notation.

With `C=CCCCOC(=O)C(CC)N(Cc1ccco1)C(=O)n1ccnc1` (racemic) [Pefurazoate], the EC50 in the test on Fusarium fujikuroi [1] is 0.49 ppm; in the test on Pyricularia oryzae, 0.89 ppm; in the test with Bipolaris oryzae, 0.84 ppm.
Take `C=CCCCOC(=O)[C@@H](CC)N(Cc1ccco1)C(=O)n1ccnc1` [(R)-(+)-pefurazoate]: the inhibition at 7.35 ppm worked out at 14.2% in the test with Fusarium fujikuroi [2], 1.6% with Fusarium fujikuroi [3], 84.5% in the test on Fusarium fujikuroi [4] and 1.3% with Fusarium fujikuroi [5]. Besides, the EC50 in the test on Fusarium fujikuroi [1] was 7.35 ppm; in the test with Pyricularia oryzae, 3.21 ppm; in the test with Bipolaris oryzae it was 3.89 ppm.
As for `C=CCCCOC(=O)[C@H](CC)N(Cc1ccco1)C(=O)n1ccnc1` [(S)-(-)-pefurazoate], the EC50 in the test on Fusarium fujikuroi [1] was 0.24 ppm; with Pyricularia oryzae, 0.61 ppm; with Bipolaris oryzae it was 0.41 ppm. Moreover, the inhibition at 0.24 ppm in the test on Fusarium fujikuroi [6] stood at 13.9%; in the test with Fusarium fujikuroi [7], 1.3%; in the test on Fusarium fujikuroi [8], 1.3%; in the test with Fusarium fujikuroi [9] it was 84.8%.
